Consider one compound from patent US20040115236A1, “Devices and methods for management of inflammation” (priority 2000, published 2004).

Structures are written as SMILES.

A short description of data set [1]: solubility in sterile distilled water. In kind it is physicochemical. The settings on record: thermodynamic from solid, read-out: maximum solubility. From the text:
Sodium cromoglycate may be delivered from an implanted pump without the use of a catheter. For example, a DUROS® osmotic pump could be used. […] The formulation of sodium cromoglycate may then be loaded into a DUROS® pump under aseptic conditions. The pump is implanted in a subject, for instance subcutaneously in the upper arm, under local anesthetic and the drug would be released therefrom into the body of the subject. [formula]

In data set [2] the test system is exercise-induced bronchoconstriction. The settings on record: inhaled administration, plasma concentrations of 4-6 ng/ml; cited from earlier work.
For data set [3] the following is noted: cited from earlier work.

In the case of `O=C(O)c1cc(=O)c2c(OCC(O)COc3cccc4oc(C(=O)O)cc(=O)c34)cccc2o1` [sodium cromoglycate, Sodium cromoglycate], the solubility in data set [1] is approximately 120 mg/mL. Further, the “inhibition of exercise-induced bronchoconstriction” value in data set [2] was 66%. Also, the “bioavailability, inhaled” value in data set [3] (inhaled) is listed as 7.5%. Further, in data set [3] (oral), the oral bioavailability result is given as “less than 1%”.
